# Reference: article PMC5838563, “Compounds producing an effective combinatorial regimen for disruption of HIV‐1 latency” (EMBO Molecular Medicine, 2017)
# Columns and labels:
# PKCδ/θ and IκBα/IκBε = system: PKCδ/θ and IκBα/IκBε; design: method as in Jiang et al, 2015; details: 12 nM PEP005; ref Jiang et al, 2015; cited from earlier work
# [1] = system: latent HIV‐1 provirus in resting CD4^+ T cells from HIV‐1‐infected patients; test: Supernatant HIV‐1 RNA from resting CD4+ T cells of patients (RT–qPCR); type: cell-based; details: 30 μM, 24 h
# Method: For this analysis, we purified resting CD4^+ (rCD4^+) T lymphocytes from pools of patient samples by two‐step negative selection (Appendix Table S3). […] Purified rCD4^+ T cells were treated with 30 μM of each PH compound for 24 h, and RNA from the culture supernatants was analyzed by one‐step RT–qPCR, where results are presented as copy numbers of the virion/ml. […] Based on its capability for reactivating latent provirus at multiple chromosomal locations in cell lines, its negligible toxic effect, and that it produces the most robust reactivation of virus from patient samples, we focused our subsequent analysis on this compound (Table 1).
# Figure 8 Effect of PH compounds on expression of HIV provirus in latently infected cells from patients Resting CD4^+ T cells purified from patient samples (n = 18, Appendix Table S3) were treated with 30 μM of each PH compound for 24 h, and HIV‐1 RNA was measured in culture supernatants. Results are presented as HIV virions/ml (mean ± SE). LOD indicates the limit of detection, 100 copies/ml culture supernatant. TEXT PRINTED IN THE PICTURE: PMA: Supernatant HIV-1 mRNA (Copies/ml): 308929.80 (50 nM) | PH01: Supernatant HIV-1 mRNA (Copies/ml): 5348.04 (Single Concentration (30μM)) | PH02: Supernatant HIV-1 mRNA (Copies/ml): 17624.53 (Single Concentration (30μM)) | PH03: Supernatant HIV-1 mRNA (Copies/ml): 4714.11 (Single Concentration (30μM)) | PH04: Supernatant HIV-1 mRNA (Copies/ml): 7134.68 (Single Concentration (30μM)) | PH05: Supernatant HIV-1 mRNA (Copies/ml): 587.19 (Single Concentration (30μM))
# HIV‐1 RNA was measured from 1 × 10^6 resting CD4^+ T lymphocytes treated with 30 μM of each compound. Extracellular RNA was isolated using the ZR Viral RNA Kit (Zymo Research) and total cellular mRNA using the RNeasy MinElute cleanup kit (Qiagen). HIV‐1 RNA concentrations were assayed in one‐step RT–qPCRs using the iTaq™ universal SYBR Green one‐step kit (BIO‐RAD) with the HIV‐1 LTR‐specific primers, AGCCGCCTAGCATTTCATC and […]. RNA copy number was calculated using a standard curve generated from titrated infections with RGH‐PGK virus (Dahabieh et al, 2013). Reproducibility of RT–qPCR analysis was confirmed using a second set of primers within HIV‐1 p24 Gag, AGCAGCCATGCAAATGTTA, […]. HIV‐1 RNA determinations were normalized to GAPDH RNA measured using the primers […] and […].
# [2] = system: HIV‐1 LTR (Jurkat^Tat LTR‐DsRed clone #131); test: mdHIV LTR‐DsRed reporter assay, clone #131; type: cell-based
# Description: HIV‐1 tends to integrate into actively transcribed regions of the host genome (Jordan et al, 2003; Lewinski et al, 2006; Ikeda et al, 2007). Each HIV‐1‐infected patient carries viral DNA integrated at different chromosomal locations, and as we have previously shown, the site of viral integration influences how latently infected T cells respond to different stimuli (Hashemi et al, 2016). Therefore, an ideal LRA should be capable of disrupting latency in cell models carrying integrated viral reporters at multiple different regions within the host genome. […]
# Figure 5 Effect of PH02 on HIV provirus integrated at different chromosomal locations • A The effect of PH compounds was analyzed using clonal lines bearing single‐copy integrations of the mini‐dual fluorescent HIV‐1 LTR reporter, md‐HIV, where GFP is constitutively expressed from the EIF‐1α internal promoter, and DsRed from the 5′ LTR. • B Fluorescence‐activated cell sorting (FACS) of cells bearing md‐HIV provirus indicates expression of EIF‐1α‐GFP and LTR‐dsRed. Stimulation of the md‐HIV lines generally causes a shift of the fluorescence profile from GFP^+/DsRed^− toward GFP^+/DsRed^+. • C, D Clone 11 or clone 131 was treated with the indicated concentrations of PH02 (left panels) or PH02 in combination with 10 nM PEP005 (right panels) for 24 h and cells analyzed by flow cytometry. […]
SMILES,time post‐treatment at which phosphorylation is induced (PKCδ/θ and IκBα/IκBε) [h],viral latency‐reversing activity compared to PMA [1],Supernatant HIV-1 mRNA ([1]; LOD 100 copies/ml) [Copies/ml],"concentration reactivating viral transcription (LTR‐DsRed, ∆MFI) ([2]; PH02 alone, 24 h, serial dilutions 28–0.2 μM)","PH02 concentration producing increased effects on HIV‐1 LTR transcription with PEP005 ([2]; in combination with 10 nM PEP005, 24 h)"
"C/C=C(/C)C(=O)O[C@H]1C(C)=C[C@]23C(=O)[C@@H](C=C(CO)[C@@H](O)[C@]12O)[C@H]1[C@@H](C[C@H]3C)C1(C)C [PEP005, ingenol‐3‐angelate, reference compound]",0.5 to 2,–,–,–,–
"CC(=O)Oc1ccccc1N(C=C1Sc2ccccc2C1=O)C(C)=O [PH02, 2‐{acetyl[(3‐oxo‐1‐benzothien‐2(3H)‐ylidene)methyl]amino}phenyl acetate]",–,consistently produced the strongest effect,17624.53,above 1.75 μM,above 1.75 μM
